US20210323976A1, “HETEROARYL COMPOUNDS FOR KINASE INHIBITION” (ARIAD Pharmaceuticals, Inc., priority 2015, published 2021)

Columns and labels:
Type in all cases: cell-based
[1] = target: T1, EGFR exon 20 ASV insertion (V769_D770insASV) (Homo sapiens, UniProt P00533, INS769ASV); experiment: Ba/F3-EGFR-Exon20-ASV cell anti-proliferation assay (MTS, CellTiter 96 AQueous One); details: Ba/F3-EGFR-Exon20-ASV cells, 72 h, MTS signal
T1 construct: expressed in transfected cells; host or cells: Ba/F3 (murine pro-B) cells, lentiviral transduction with pLVX-IRES puro
Source text: A compound's ability in selectively inhibiting EGFR exon 20 insertion mutations can be assessed using Ba/F3 cells, a murine pro-B cell line, which have been transduced with EGFR exon 20 insertions. An expression vector, pLVX-IRES puro (Clontech) coding for human EGFR exon 20 insertions NPG (H773_V774insNPG) or ASV (V769_D770insASV), was transfected into HEK293 cells by the Trans-Lentiviral ORF Packaging System (Thermo Scientific), to produce virus encoding EGFR exon 20 insertions. Ba/F3 (DSMZ) cells maintained in RPM11640 medium supplemented with 10% fetal bovine serum, 200 pM L-glutamine/200 µg/mL penicillin/200 µg/mL streptomycin (Life Technology) and 10 ng/mL IL-3 (R&D system), were infected by EGFR Exon20 virus and subsequently selected by puromycin (Life Technology) selection and IL-3 depletion. Ba/F3 cells expressing EGFR exon 20 insertions (named Ba/F3-EGFR-Exon20-NPG or Ba/F3-EGFR-Exon20-ASV) can proliferate in the absence of IL-3. The anti-proliferative activity of compounds were determined as follows: BaF3-EGFR-Exon20 cells (NPG or ASV) seeded in 96 well plates (2500 cells/well) were treated with test compound (dissolved in DMSO) at a series of concentrations (4-fold dilution, top concentration: 10,000 nM). The plates were incubated for 72 h in a 37° C. incubator with 5% CO2, and the number of viable cells in each well were measured indirectly by CellTiter 96® Aqueous One Solution Cell Proliferation Assay (Promega) This assay is a colorimetric method for determining the number of viable cells through measurement of their metabolic activity by detection of enzymatic conversion of tetrazolium salts into blue formazan derivatives. Reagent (20 pL) was added into each well, and the plates were returned to the incubator for 2 h. The absorbance in each well was then measured at 490 nm using an Envision plate reader (Perkin Elmer). IC50 values were calculated by determining the concentration of compound required to decrease the MTS signal by 50% comparing to the DMSO control in best-fit curves using Microsoft XLfit software or Accelrys Pipeline Pilot.

[2] = target: T2, EGFR exon 19 deletion (E746-A750) and T790M mutation (Homo sapiens, UniProt P00533, DEL746-750/T790M); experiment: Ba/F3-EGFR-Del/T790M cell anti-proliferation assay (MTS); details: Ba/F3-EGFR-Del/T790M cells, 72 h, MTS signal
T2 construct: expressed in transfected cells; host or cells: Ba/F3 (murine pro-B) cells, lentiviral transduction with pLVX-IRES puro
Source text: A compound's ability in selectively inhibiting EGFR exon 19 deletion and T790M concurrent mutations can be assessed using Ba/F3 cells, a murine pro-B cell line, which have been transduced with EGFR exon 19 deletion and T790M mutation. An expression vector, pLVX-IRES puro (Clontech) coding for human EGFR E746-A750 deletion and T790M Mutation, was transfected into HEK293 cells by the Trans-Lentiviral ORF Packaging System (Thermo Scientific), to produce virus encoding EGFR exon 19 deletion and T790M mutations. Ba/F3 (DSMZ) cells maintained in RPM11640 medium supplemented with 10% fetal bovine serum, 200 pM L-glutamine/200 μg/mL penicillin/200 μg/mL streptomycin (Life Technology) and 10 ng/mL IL-3 (R&D system), were infected by EGFR E746-A750 deletion and T790M Mutation virus and subsequently selected by puromycin (Life Technology) selection and IL-3 depletion. Ba/F3 cells expressing EGFR E746-A750 deletion and T790M Mutation (named Ba/F3-EGFR-Del/T790M) can proliferate in the absence of IL-3. The anti-proliferative activity of compounds was determined as follows: BaF3-EGFR-Del/T790M cells seeded in 96 well plates (2500 cells/well) were treated with test compound (dissolved in DMSO) at a series of concentrations (4-fold dilution, top concentration: 10,000 nM). The plates were incubated for 72 h in a 37° C. incubator with 5% CO2, and the number of viable cells in each well were measured indirectly by CellTiter 96® Aqueous One Solution Cell Proliferation Assay (Promega; this assay is a colorimetric method for determining the number of viable cells through measurement of their metabolic activity by detection of enzymatic conversion of tetrazolium salts into blue formazan derivatives). Reagent (20 pL) was added into each well, and the plates were returned to the incubator for 2 h. The absorbance in each well was then measured at 490 nm using an Envision plate reader (Perkin Elmer). IC50 values were calculated by determining the concentration of compound required to decrease the MTS signal by 50% comparing to the DMSO control in best-fit curves using Microsoft XLfit software or Accelrys Pipeline Pilot.

[3] = target: T3, EGFR exon 21 L858R and T790M mutation (Homo sapiens, UniProt P00533, L858R/T790M); experiment: Ba/F3-EGFR L858R/T790M cell anti-proliferation assay (MTS); details: Ba/F3-EGFR L858R/T790M cells, 72 h, MTS signal
T3 construct: expressed in transfected cells; host or cells: Ba/F3 (murine pro-B) cells, lentiviral transduction with pLVX-IRES puro
Source text: A compound's ability in selectively inhibiting EGFR L858R and T790M concurrent mutations can be assessed using Ba/F3 cells, a murine pro-B cell line, which have been transduced with EGFR L858R and T790M double mutations. An expression vector, pLVX-IRES puro (Clontech) coding for human EGFR L858R and T790M double mutation, was transfected into HEK293 cells by the Trans-Lentiviral ORF Packaging System (Thermo Scientific), to produce virus encoding EGFR L858R and T790M double mutations. Ba/F3 (DSMZ) cells maintained in RPM11640 medium supplemented with 10% fetal bovine serum, 200 pM L-glutamine/200 μg/mL penicillin/200 μg/mL streptomycin (Life Technology) and 10 ng/mL IL-3 (R&D system), were infected by EGFR L858R and T790M double mutation virus and subsequently selected by puromycin (Life Technology) selection and IL-3 depletion. Ba/F3 cells expressing EGFR L858R and T790M double mutation (named Ba/F3-EGFR L858R/T790M) can proliferate in the absence of IL-3. The anti-proliferative activity of compounds was determined as follows: BaF3-EGFR L858R/T790M cells seeded in 96 well plates (2500 cells/well) were treated with test compound (dissolved in DMSO) at a series of concentrations (4-fold dilution, top concentration: 10,000 nM). The plates were incubated for 72 h in a 37° C. incubator with 5% CO2, and the number of viable cells in each well were measured indirectly by CellTiter 96® Aqueous One Solution Cell Proliferation Assay (Promega; this assay is a colorimetric method for determining the number of viable cells through measurement of their metabolic activity by detection of enzymatic conversion of tetrazolium salts into blue formazan derivatives). Reagent (20 pL) was added into each well, and the plates were returned to the incubator for 2 h. The absorbance in each well was then measured at 490 nm using an Envision plate reader (Perkin Elmer). IC50 values were calculated by determining the concentration of compound required to decrease the MTS signal by 50% comparing to the DMSO control in best-fit curves using Microsoft XLfit software or Accelrys Pipeline Pilot.

T3 sequence (P00533 25-1210 T790M/L858R): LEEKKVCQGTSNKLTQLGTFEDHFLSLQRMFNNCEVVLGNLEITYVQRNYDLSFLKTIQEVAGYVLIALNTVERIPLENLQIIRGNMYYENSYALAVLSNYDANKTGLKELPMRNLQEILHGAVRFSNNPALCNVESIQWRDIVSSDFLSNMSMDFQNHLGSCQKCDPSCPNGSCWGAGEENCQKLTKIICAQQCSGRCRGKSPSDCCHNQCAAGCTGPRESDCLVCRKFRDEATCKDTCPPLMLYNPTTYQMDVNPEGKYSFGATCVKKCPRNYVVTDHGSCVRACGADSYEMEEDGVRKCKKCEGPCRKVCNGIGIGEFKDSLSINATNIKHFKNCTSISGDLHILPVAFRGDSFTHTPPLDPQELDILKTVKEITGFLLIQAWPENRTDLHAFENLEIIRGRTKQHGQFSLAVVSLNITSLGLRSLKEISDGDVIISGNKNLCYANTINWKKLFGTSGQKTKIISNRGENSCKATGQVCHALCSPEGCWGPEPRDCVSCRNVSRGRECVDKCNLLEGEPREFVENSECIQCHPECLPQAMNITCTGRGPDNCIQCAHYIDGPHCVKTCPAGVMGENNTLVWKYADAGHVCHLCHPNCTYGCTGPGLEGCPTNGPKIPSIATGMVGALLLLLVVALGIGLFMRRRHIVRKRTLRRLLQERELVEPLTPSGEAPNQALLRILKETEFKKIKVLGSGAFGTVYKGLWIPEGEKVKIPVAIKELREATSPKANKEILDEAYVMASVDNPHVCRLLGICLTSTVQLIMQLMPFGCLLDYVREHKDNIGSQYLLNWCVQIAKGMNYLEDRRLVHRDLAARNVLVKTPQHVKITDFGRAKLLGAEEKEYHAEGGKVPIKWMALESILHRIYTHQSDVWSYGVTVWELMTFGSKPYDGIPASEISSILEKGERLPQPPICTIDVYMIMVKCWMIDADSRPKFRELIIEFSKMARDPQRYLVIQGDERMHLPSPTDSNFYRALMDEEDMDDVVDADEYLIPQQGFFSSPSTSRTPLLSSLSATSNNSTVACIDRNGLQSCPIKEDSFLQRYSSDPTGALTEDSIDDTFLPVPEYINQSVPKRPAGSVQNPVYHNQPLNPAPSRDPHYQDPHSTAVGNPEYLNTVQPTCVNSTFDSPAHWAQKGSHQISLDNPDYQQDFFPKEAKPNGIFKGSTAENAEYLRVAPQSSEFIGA
T2 sequence (P00533 with tags, fused parts or gaps DEL746-750/T790M): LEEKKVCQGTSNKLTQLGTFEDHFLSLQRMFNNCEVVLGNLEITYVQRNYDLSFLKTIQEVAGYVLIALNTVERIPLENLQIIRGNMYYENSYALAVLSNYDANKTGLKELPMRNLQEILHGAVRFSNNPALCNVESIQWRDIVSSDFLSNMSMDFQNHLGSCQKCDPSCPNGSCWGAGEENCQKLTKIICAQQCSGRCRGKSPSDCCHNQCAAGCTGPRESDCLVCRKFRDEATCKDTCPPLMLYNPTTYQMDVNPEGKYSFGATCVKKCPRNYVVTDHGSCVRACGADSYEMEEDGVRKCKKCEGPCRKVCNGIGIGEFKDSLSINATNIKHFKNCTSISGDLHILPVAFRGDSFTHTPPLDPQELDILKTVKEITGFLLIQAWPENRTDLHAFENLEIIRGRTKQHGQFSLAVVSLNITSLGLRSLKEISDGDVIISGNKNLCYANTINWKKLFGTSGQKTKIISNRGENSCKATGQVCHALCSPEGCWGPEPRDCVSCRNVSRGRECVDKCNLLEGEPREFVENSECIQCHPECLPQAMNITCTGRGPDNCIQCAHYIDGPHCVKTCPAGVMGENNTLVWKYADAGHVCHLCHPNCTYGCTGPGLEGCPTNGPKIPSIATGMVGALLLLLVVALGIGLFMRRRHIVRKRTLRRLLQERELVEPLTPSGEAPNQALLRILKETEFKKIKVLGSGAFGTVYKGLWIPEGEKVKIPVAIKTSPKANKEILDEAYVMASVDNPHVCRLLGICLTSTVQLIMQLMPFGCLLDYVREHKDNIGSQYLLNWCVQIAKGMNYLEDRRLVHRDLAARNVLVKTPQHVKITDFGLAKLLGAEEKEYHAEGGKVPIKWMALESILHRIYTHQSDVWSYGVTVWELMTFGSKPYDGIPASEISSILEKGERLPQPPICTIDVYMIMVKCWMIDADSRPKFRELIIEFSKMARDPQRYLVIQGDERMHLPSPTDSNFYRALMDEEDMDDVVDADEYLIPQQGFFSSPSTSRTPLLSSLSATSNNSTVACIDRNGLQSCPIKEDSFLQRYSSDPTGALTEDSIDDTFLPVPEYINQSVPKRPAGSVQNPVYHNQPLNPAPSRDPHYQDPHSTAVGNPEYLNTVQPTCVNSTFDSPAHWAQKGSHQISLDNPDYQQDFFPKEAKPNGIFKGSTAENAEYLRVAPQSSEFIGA
T1 sequence (P00533 with tags, fused parts or gaps INS769ASV): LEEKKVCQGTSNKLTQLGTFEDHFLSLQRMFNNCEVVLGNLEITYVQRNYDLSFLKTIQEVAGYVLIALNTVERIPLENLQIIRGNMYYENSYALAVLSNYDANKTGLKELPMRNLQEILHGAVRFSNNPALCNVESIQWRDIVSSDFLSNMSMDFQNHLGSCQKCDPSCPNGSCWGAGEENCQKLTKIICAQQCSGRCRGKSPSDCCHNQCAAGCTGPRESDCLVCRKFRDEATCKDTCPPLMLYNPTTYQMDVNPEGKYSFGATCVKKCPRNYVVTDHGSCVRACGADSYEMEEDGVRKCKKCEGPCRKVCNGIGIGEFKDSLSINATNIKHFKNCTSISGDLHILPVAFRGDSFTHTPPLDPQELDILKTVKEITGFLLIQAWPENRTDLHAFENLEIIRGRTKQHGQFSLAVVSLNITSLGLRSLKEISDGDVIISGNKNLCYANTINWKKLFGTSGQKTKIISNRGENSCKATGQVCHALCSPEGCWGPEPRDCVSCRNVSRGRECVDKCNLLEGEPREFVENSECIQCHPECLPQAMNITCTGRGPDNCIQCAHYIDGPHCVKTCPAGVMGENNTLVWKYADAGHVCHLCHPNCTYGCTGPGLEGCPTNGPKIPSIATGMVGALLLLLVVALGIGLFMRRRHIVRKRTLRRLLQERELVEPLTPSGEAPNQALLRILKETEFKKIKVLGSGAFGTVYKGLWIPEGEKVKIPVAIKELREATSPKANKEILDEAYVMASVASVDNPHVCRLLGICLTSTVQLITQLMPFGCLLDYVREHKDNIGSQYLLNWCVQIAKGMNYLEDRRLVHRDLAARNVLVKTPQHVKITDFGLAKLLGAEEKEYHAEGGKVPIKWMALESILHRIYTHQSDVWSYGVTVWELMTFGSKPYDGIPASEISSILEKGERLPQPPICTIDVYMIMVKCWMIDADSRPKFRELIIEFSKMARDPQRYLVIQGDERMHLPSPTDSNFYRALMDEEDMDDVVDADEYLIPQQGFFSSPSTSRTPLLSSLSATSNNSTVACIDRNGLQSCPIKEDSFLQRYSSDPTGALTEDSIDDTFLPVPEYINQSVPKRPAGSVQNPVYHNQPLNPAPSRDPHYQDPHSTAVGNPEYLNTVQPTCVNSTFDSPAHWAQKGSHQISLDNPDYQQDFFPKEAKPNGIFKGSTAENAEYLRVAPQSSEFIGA

| SMILES | IC50 [1] [nM] | EGFR exon 19 deletion and T790M mutation IC50 [2] | EGFR exon 21 L858R and T790M mutation IC50 [3] |
| --- | --- | --- | --- |
| C=CC(=O)Nc1cc(Nc2nccc(-c3c4n(c5ccccc35)CCOC4)n2)c(OC)cc1N(C)CCN(C)C [Example 1, N-(5-((4-(3,4-dihydro-1H-[1,4]oxazino[4,3-a]indol-10-yl)pyrimidin-2-yl)amino)-2-((2-(dimethylamino)ethyl)(methyl)amino)-4-methoxyphenyl)acrylamide] | < 100 | A (Group A compounds have an IC50 value for the indicated mutant below about 100 nM) | A (Group A compounds have an IC50 value for the indicated mutant below about 100 nM) |
| C=CC(=O)Nc1cc(Nc2nccc(-c3c4n(c5ccccc35)CCN(C)C4=O)n2)c(OC)cc1N(C)CCN(C)C [Example 2, N-(2-((2-(dimethylamino)ethyl)(methyl)amino)-4-methoxy-5-((4-(2-methyl-1-oxo-1,2,3,4-tetrahydropyrazino[1,2-a]indol-10-yl)pyrimidin-2-yl)amino)phenyl)acrylamide] | 100 to 500 | A (Group A compounds have an IC50 value for the indicated mutant below about 100 nM) | A (Group A compounds have an IC50 value for the indicated mutant below about 100 nM) |
| C=CC(=O)Nc1cc(Nc2nccc(-c3c4n(c5ccccc35)CC(O)CC4)n2)c(OC)cc1N(C)CCN(C)C (stereo not drawn) [Example 3, N-(2-((2-(dimethylamino)ethyl)(methyl)amino)-5-((4-(7-hydroxy-6,7,8,9-tetrahydropyrido[1,2-a]indol-10-yl)pyrimidin-2-yl)amino)-4-methoxyphenyl)acrylamide] | < 100 | A (Group A compounds have an IC50 value for the indicated mutant below about 100 nM) | A (Group A compounds have an IC50 value for the indicated mutant below about 100 nM) |
| C=CC(=O)Nc1cc(Nc2nccc(-c3c4n(c5ccccc35)CC3OC(C)(C)OC3C4)n2)c(OC)cc1N(C)CCN(C)C (stereo not drawn) [Example 4, N-(5-((4-(cis-2,2-dimethyl-3a,4,11,11a-tetrahydro-[1,3]dioxolo[4′,5′:4,5]pyrido[1,2-a]indol-10-yl)pyrimidin-2-yl)amino)-2-((2-(dimethylamino)ethyl)(methyl)amino)-4-methoxyphenyl)acrylamide] | < 100 | A (Group A compounds have an IC50 value for the indicated mutant below about 100 nM) | A (Group A compounds have an IC50 value for the indicated mutant below about 100 nM) |
| C=CC(=O)Nc1cc(Nc2nccc(-c3c4n(c5ccccc35)CCCC4)n2)c(OC)cc1N(C)CCN(C)C [Example 5, N-(2-((2-(dimethylamino)ethyl)(methyl)amino)-4-methoxy-5-((4-(6,7,8,9-tetrahydropyrido[1,2-a]indol-10-yl)pyrimidin-2-yl)amino)phenyl)acrylamide] | < 100 | A (Group A compounds have an IC50 value for the indicated mutant below about 100 nM) | A (Group A compounds have an IC50 value for the indicated mutant below about 100 nM) |
| C=CC(=O)Nc1cc(Nc2nccc(-c3c4n(c5ccccc35)CC(O)C(O)C4)n2)c(OC)cc1N(C)CCN(C)C (stereo not drawn) [Example 6, N-(5-((4-(cis-7,8-dihydroxy-6,7,8,9-tetrahydropyrido[1,2-a]indol-10-yl)pyrimidin-2-yl)amino)-2-((2-(dimethylamino)ethyl)(methyl)amino)-4-methoxyphenyl)acrylamide] | < 100 | A (Group A compounds have an IC50 value for the indicated mutant below about 100 nM) | A (Group A compounds have an IC50 value for the indicated mutant below about 100 nM) |
| C=CC(=O)Nc1cc(Nc2nccc(-c3c4n(c5ccccc35)CC(OC)CC4)n2)c(OC)cc1N(C)CCN(C)C (stereo not drawn) [Example 7, N-(2-((2-(dimethylamino)ethyl)(methyl)amino)-4-methoxy-5-((4-(7-methoxy-6,7,8,9-tetrahydropyrido[1,2-a]indol-10-yl)pyrimidin-2-yl)amino)phenyl)acrylamide] | < 100 | A (Group A compounds have an IC50 value for the indicated mutant below about 100 nM) | A (Group A compounds have an IC50 value for the indicated mutant below about 100 nM) |
| C=CC(=O)Nc1cc(Nc2nccc(-n3c4c(c5ccccc53)CC(O)CC4)n2)c(OC)cc1N(C)CCN(C)C (stereo not drawn) [Example 10, N-(2-((2-(dimethylamino)ethyl)(methyl)amino)-5-((4-(3-hydroxy-1,2,3,4-tetrahydro-9H-carbazol-9-yl)pyrimidin-2-yl)amino)-4-methoxyphenyl)acrylamide] | < 100 | A (Group A compounds have an IC50 value for the indicated mutant below about 100 nM) | A (Group A compounds have an IC50 value for the indicated mutant below about 100 nM) |
